From patent US10758534B2 (Vertex Pharmaceuticals Incorporated, priority 2014, dated 2020)

Biological target: T1, F508del (Homo sapiens, UniProt P13569, DEL508-508)
T1 construct: expressed in transfected cells
Assay: Protocol 1: membrane potential optical assay (FLIPR III, voltage sensing dye), identification of potentiator compounds
Type: cell-based
Conditions: Table 3, compounds of Table 1
How it was run: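 Mouse NIH 3T3 fibroblasts stably expressing F508del, temperature-corrected at 27 °C for 24 h, pretreated with compound, then loaded with voltage-sensing redistribution dye. Forskolin was added in a single step with a chloride gradient (chloride-free gluconate bath; Bath Solution #1 HEPES pH 7.4). Membrane-potential fluorescence read on FLIPR III.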

T1 sequence (P13569 with tags, fused parts or gaps DEL508-508): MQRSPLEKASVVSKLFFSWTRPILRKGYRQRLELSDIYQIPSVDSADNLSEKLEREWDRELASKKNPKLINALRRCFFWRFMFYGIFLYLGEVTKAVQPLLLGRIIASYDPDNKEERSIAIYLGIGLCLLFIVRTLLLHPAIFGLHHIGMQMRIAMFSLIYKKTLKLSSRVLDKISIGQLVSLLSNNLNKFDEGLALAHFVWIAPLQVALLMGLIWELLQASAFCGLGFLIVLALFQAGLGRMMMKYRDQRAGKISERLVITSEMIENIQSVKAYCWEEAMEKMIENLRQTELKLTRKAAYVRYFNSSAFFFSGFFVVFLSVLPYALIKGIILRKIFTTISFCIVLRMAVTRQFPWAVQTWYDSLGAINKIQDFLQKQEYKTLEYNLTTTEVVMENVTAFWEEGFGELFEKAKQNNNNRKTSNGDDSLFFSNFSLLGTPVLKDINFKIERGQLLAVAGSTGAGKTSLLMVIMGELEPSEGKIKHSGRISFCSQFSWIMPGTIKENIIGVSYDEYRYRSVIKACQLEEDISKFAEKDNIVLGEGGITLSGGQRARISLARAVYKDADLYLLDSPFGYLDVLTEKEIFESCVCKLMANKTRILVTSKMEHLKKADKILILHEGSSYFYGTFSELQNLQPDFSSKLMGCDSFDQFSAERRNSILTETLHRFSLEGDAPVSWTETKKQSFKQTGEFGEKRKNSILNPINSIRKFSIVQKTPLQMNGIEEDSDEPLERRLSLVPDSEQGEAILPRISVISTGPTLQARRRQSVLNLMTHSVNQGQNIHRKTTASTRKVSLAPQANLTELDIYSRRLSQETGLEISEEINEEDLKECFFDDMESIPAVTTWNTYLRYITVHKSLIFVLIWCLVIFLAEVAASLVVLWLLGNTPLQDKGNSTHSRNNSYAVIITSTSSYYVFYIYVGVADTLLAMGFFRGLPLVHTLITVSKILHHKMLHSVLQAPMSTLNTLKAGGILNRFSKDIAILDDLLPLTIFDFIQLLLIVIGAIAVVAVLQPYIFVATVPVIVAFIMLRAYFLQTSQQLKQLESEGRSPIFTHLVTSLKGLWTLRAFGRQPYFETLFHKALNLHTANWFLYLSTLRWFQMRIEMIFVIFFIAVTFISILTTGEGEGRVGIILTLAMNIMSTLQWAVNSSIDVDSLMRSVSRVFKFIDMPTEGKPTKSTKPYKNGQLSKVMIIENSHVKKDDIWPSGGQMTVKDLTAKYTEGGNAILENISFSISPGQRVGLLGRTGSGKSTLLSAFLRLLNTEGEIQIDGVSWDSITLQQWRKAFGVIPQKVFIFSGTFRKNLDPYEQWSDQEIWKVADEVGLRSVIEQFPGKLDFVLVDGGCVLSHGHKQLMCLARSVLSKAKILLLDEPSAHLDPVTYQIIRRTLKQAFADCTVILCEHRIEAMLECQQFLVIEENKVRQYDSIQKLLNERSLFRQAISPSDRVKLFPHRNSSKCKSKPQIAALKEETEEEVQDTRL

Row | SMILES | EC30
1 | CC(C)COc1cc(F)cc(-c2ccc(C(=O)NS(=O)(=O)c3cccc(N)n3)c(N3CCC[C@H]3c3ccccc3)n2)c1 [Compound 1260, N-[(6-amino-2-pyridyl)sulfonyl]-6-(3-fluoro-5-isobutoxy-phenyl)-2-[(2S)-2-phenylpyrrolidin-1-yl]pyridine-3-carboxamide] | +++ (“+++” means <3 uM)
2 | CC(C)(C)c1ccc(C(=O)NS(=O)(=O)c2cccc(N)n2)c(N2CCC[C@@H](c3ccccc3)C2)n1 [Compound 1261, N-[(6-amino-2-pyridyl)sulfonyl]-6-tert-butyl-2-[(3S)-3-phenyl-1-piperidyl]pyridine-3-carboxamide] | +++ (“+++” means <3 uM)
3 | CC1CN(c2nc(-c3ccnc(C(C)C)c3)ccc2C(=O)NS(=O)(=O)c2cccc(N)n2)C(C)(C)C1 (centres unmarked) [Compound 1262, N-[(6-amino-2-pyridyl)sulfonyl]-6-(2-isopropyl-4-pyridyl)-2-(2,2,4-trimethylpyrrolidin-1-yl)pyridine-3-carboxamide] | ++ (“++” means between 3 uM and 10 uM)
4 | CC(C)COc1cc(F)cc(-c2ccc(C(=O)NS(=O)(=O)c3cccc(N)n3)c(OC3CCCCCC3)n2)c1 [Compound 1263, N-[(6-amino-2-pyridyl)sulfonyl]-2-(cycloheptoxy)-6-(3-fluoro-5-isobutoxy-phenyl)pyridine-3-carboxamide] | +++ (“+++” means <3 uM)
5 | CC(C)COc1cc(F)cc(-c2ccc(C(=O)NS(=O)(=O)c3cccc(N)n3)c(N3CCCC4(CCC4)C3)n2)c1 [Compound 1264, N-[(6-amino-2-pyridyl)sulfonyl]-2-(8-azaspiro[3.5]nonan-8-yl)-6-(3-fluoro-5-isobutoxy-phenyl)pyridine-3-carboxamide] | +++ (“+++” means <3 uM)
6 | Cc1ccc(-c2nc(C(C)(C)C)ccc2C(=O)NS(=O)(=O)c2cccc(O)c2)cc1 [Compound 1265, 6-tert-butyl-N-(3-hydroxyphenyl)sulfonyl-2-(p-tolyl)pyridine-3-carboxamide] | ++ (“++” means between 3 uM and 10 uM)
7 | CC(C)COc1cc(-c2ccc(C(=O)NS(=O)(=O)c3cccc(N)n3)c(N3CCC(C)CC3)n2)ccc1Cl [Compound 1266, N-[(6-amino-2-pyridyl)sulfonyl]-6-(4-chloro-3-isobutoxy-phenyl)-2-(4-methyl-1-piperidyl)pyridine-3-carboxamide] | +++ (“+++” means <3 uM)
8 | CC(C)COc1cc(F)cc(-c2ccc(C(=O)NS(=O)(=O)c3cccc(N)n3)c(N3CCOCC3(C)C)n2)c1 [Compound 1267, N-[(6-amino-2-pyridyl)sulfonyl]-2-(3,3-dimethylmorpholin-4-yl)-6-(3-fluoro-5-isobutoxy-phenyl)pyridine-3-carboxamide] | +++ (“+++” means <3 uM)
9 | Cc1cc(C(=O)NS(=O)(=O)c2cccc(N)n2)c(N2CC(C)CC2(C)C)nc1-c1cc(F)cc(OCC(C)C)c1 (centres unmarked) [Compound 1269, N-[(6-amino-2-pyridyl)sulfonyl]-6-(3-fluoro-5-isobutoxy-phenyl)-5-methyl-2-(2,2,4-trimethylpyrrolidin-1-yl)pyridine-3-carboxamide] | +++ (“+++” means <3 uM)
10 | C[C@@H]1CC[C@H](C)N1c1nc(-c2ccc(OCC(C)(C)C)nc2)ccc1C(=O)NS(=O)(=O)c1cccc(N)n1 [Compound 1270, N-[(6-amino-2-pyridyl)sulfonyl]-6-[6-(2,2-dimethylpropoxy)-3-pyridyl]-2-[(2S,5R)-2,5-dimethylpyrrolidin-1-yl]pyridine-3-carboxamide] | +++ (“+++” means <3 uM)
11 | CC(C)Oc1ccc(-c2ccc(C(=O)NS(=O)(=O)c3cccc(N)n3)c(N3CCCC3C)n2)cn1 (centres unmarked) [Compound 1271, N-[(6-amino-2-pyridyl)sulfonyl]-6-(6-isopropoxy-3-pyridyl)-2-(2-methylpyrrolidin-1-yl)pyridine-3-carboxamide] | +++ (“+++” means <3 uM)
12 | Cc1cc(C)c(CN2Cc3ccccc3C2(C)C(=O)NS(=O)(=O)c2cccc(N)c2)c(C)c1 (centres unmarked) [Compound 1273, N-(3-aminophenyl)sulfonyl-1-methyl-2-[(2,4,6-trimethylphenyl)methyl]isoindoline-1-carboxamide] | +++ (“+++” means <3 uM)
13 | CC(C)Oc1ccc(-c2ccc(C(=O)NS(=O)(=O)c3cccc(N)n3)c(N3CCCC(C(F)(F)F)C3)n2)cn1 (centres unmarked) [Compound 1274, N-[(6-amino-2-pyridyl)sulfonyl]-6-(6-isopropoxy-3-pyridyl)-2-[3-(trifluoromethyl)-1-piperidyl]pyridine-3-carboxamide] | +++ (“+++” means <3 uM)
14 | CC(C)COc1cc(F)cc(-c2ccc(C(=O)NS(=O)(=O)c3cccc(N)n3)c(N3CCC(C)(C)CC3)n2)c1 [Compound 1279, N-[(6-amino-2-pyridyl)sulfonyl]-2-(4,4-dimethyl-1-piperidyl)-6-(3-fluoro-5-isobutoxy-phenyl)pyridine-3-carboxamide] | +++ (“+++” means <3 uM)
15 | CC(C)COc1cc(F)cc(-c2ccc(C(=O)NS(=O)(=O)c3ccn[nH]3)c(NC3CCCC(C(F)(F)F)C3)n2)c1 (centres unmarked) [Compound 1281, 6-(3-fluoro-5-isobutoxy-phenyl)-N-(1H-pyrazol-5-ylsulfonyl)-2-[[3-(trifluoromethyl)cyclohexyl]amino]pyridine-3-carboxamide] | ++ (“++” means between 3 uM and 10 uM)
16 | CC(C)COc1cc(F)cc(-c2ccc(C(=O)NS(=O)(=O)c3ccn[nH]3)c(N3CCCC34CCC4)n2)c1 [Compound 1282, 2-(8-azaspiro[3.4]octan-8-yl)-6-(3-fluoro-5-isobutoxy-phenyl)-N-(1H-pyrazol-5-ylsulfonyl)pyridine-3-carboxamide] | +++ (“+++” means <3 uM)
17 | CC(C)Oc1ccc(-c2ccc(C(=O)NS(=O)(=O)c3cccc(N)n3)c(N3CCCC(C)(C)C3)n2)cn1 [Compound 1283, N-[(6-amino-2-pyridyl)sulfonyl]-2-(3,3-dimethyl-1-piperidyl)-6-(6-isopropoxy-3-pyridyl)pyridine-3-carboxamide] | +++ (“+++” means <3 uM)
18 | CC(C)Oc1cc(F)cc(-c2ccc(C(=O)NS(=O)(=O)c3ccn[nH]3)c(N3[C@H](C)CC[C@@H]3C)n2)c1 [Compound 1285, 2-[(2S,5R)-2,5-dimethylpyrrolidin-1-yl]-6-(3-fluoro-5-isopropoxy-phenyl)-N-(1H-pyrazol-5-ylsulfonyl)pyridine-3-carboxamide] | +++ (“+++” means <3 uM)
19 | CC(C)COc1cc(F)cc(-c2ccc(C(=O)NS(=O)(=O)c3ccn[nH]3)c(N3CCCC(C4CC4)C3)n2)c1 (centres unmarked) [Compound 1286, 2-(3-cyclopropyl-1-piperidyl)-6-(3-fluoro-5-isobutoxy-phenyl)-N-(1H-pyrazol-5-ylsulfonyl)pyridine-3-carboxamide] | +++ (“+++” means <3 uM)
20 | COc1ccc(C)c(-c2nc(N3CC(C)CC3(C)C)c(C(=O)NS(=O)(=O)c3cccc(N)n3)cc2C)c1 (centres unmarked) [Compound 1287, N-[(6-amino-2-pyridyl)sulfonyl]-6-(5-methoxy-2-methyl-phenyl)-5-methyl-2-(2,2,4-trimethylpyrrolidin-1-yl)pyridine-3-carboxamide] | +++ (“+++” means <3 uM)

Continued, values first:

Row | EC30 | SMILES
21 | +++ (“+++” means <3 uM) | COc1cc(C)c(-c2ccc(C(=O)NS(=O)(=O)c3cccc(N)n3)c(N3CC(C)CC3(C)C)n2)cc1C (centres unmarked) [Compound 1259, N-[(6-amino-2-pyridyl)sulfonyl]-6-(4-methoxy-2,5-dimethyl-phenyl)-2-(2,2,4-trimethylpyrrolidin-1-yl)pyridine-3-carboxamide]
22 | +++ (“+++” means <3 uM) | CCOc1ccc(-c2ccc(C(=O)NS(=O)(=O)c3cccc(N)n3)c(Oc3c(C)cc(C)cc3C)n2)cc1OC [Compound 1268, N-[(6-amino-2-pyridyl)sulfonyl]-6-(4-ethoxy-3-methoxy-phenyl)-2-(2,4,6-trimethylphenoxy)pyridine-3-carboxamide]
23 | +++ (“+++” means <3 uM) | Cc1ccnc(-c2ccc(C(=O)NS(=O)(=O)c3cccc(N)n3)c(Oc3c(C)cc(C)cc3C)n2)c1 [Compound 1272, N-[(6-amino-2-pyridyl)sulfonyl]-6-(4-methyl-2-pyridyl)-2-(2,4,6-trimethylphenoxy)pyridine-3-carboxamide]
24 | +++ (“+++” means <3 uM) | Cc1cc(C)c(Oc2nc(-c3cnc(N4CCCC4)nc3)ccc2C(=O)NS(=O)(=O)c2cccc(N)n2)c(C)c1 [Compound 1275, N-[(6-amino-2-pyridyl)sulfonyl]-6-(2-pyrrolidin-1-ylpyrimidin-5-yl)-2-(2,4,6-trimethylphenoxy)pyridine-3-carboxamide]
25 | ++ (“++” means between 3 uM and 10 uM) | Cc1cc(C)c(Oc2nc(-c3ccc4c(cnn4C)c3)ccc2C(=O)NS(=O)(=O)c2cccc(N)n2)c(C)c1 [Compound 1276, N-[(6-amino-2-pyridyl)sulfonyl]-6-(1-methylindazol-5-yl)-2-(2,4,6-trimethylphenoxy)pyridine-3-carboxamide]
26 | +++ (“+++” means <3 uM) | COc1cc(-c2ccc(C(=O)NS(=O)(=O)c3cccc(N)n3)c(Oc3c(C)cc(C)cc3C)n2)c(F)cn1 [Compound 1277, N-[(6-amino-2-pyridyl)sulfonyl]-6-(5-fluoro-2-methoxy-4-pyridyl)-2-(2,4,6-trimethylphenoxy)pyridine-3-carboxamide]
27 | + (“+” means greater than 10 uM) | Cc1cc(C)c(Oc2nc(-c3ccccn3)ccc2C(=O)NS(=O)(=O)c2cccc(N)n2)c(C)c1 [Compound 1278, N-[(6-amino-2-pyridyl)sulfonyl]-6-(2-pyridyl)-2-(2,4,6-trimethylphenoxy)pyridine-3-carboxamide]
28 | +++ (“+++” means <3 uM) | Cc1cc(C)c(Oc2nc(C3CCCC3)ccc2C(=O)NS(=O)(=O)c2cccc(N)n2)c(C)c1 [Compound 1280, N-[(6-amino-2-pyridyl)sulfonyl]-6-cyclopentyl-2-(2,4,6-trimethylphenoxy)pyridine-3-carboxamide]
29 | +++ (“+++” means <3 uM) | COc1nccc(-c2ccc(C(=O)NS(=O)(=O)c3cccc(N)n3)c(Oc3c(C)cc(C)cc3C)n2)c1Cl [Compound 1284, N-[(6-amino-2-pyridyl)sulfonyl]-6-(3-chloro-2-methoxy-4-pyridyl)-2-(2,4,6-trimethylphenoxy)pyridine-3-carboxamide]
